Results reported in US20140135310A1, “SULPHONAMIDE DERIVATIVES OF ALICYCLIC AMINES FOR THE TREATMENT OF CENTRAL NERVOUS SYSTEM DISEASES” (Adamed Sp. z o.o., priority 2011, published 2014).

What was measured:
5-HT2C receptor = molecular target: T1, 5-HT2C receptor (Homo sapiens, UniProt P28335); assay: Radioligand binding assay, serotoninergic 5-HT2C receptors; details: test compound 1×10^−6 M
T1 construct: expressed in transfected cells; host or cells: HEK-293 cells
T1 sequence (P28335 33-458): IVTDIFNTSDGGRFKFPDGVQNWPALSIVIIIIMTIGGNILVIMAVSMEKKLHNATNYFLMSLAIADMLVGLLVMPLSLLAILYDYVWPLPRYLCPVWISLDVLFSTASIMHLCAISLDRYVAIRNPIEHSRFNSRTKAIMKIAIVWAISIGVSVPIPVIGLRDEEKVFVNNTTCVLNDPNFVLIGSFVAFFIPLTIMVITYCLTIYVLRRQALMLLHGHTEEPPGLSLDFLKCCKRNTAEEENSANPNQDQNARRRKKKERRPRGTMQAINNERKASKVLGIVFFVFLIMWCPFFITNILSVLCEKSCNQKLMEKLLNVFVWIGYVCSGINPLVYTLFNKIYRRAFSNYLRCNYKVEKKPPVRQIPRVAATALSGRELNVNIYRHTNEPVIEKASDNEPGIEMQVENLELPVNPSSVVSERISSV

[1] = molecular target: dopaminergic receptors D3 (Homo sapiens, UniProt P35462); assay: Radioligand binding assay, dopaminergic D3 receptors; details: test compound 1×10^−6 M
dopaminergic receptors D3, sequence (P35462 whole entry): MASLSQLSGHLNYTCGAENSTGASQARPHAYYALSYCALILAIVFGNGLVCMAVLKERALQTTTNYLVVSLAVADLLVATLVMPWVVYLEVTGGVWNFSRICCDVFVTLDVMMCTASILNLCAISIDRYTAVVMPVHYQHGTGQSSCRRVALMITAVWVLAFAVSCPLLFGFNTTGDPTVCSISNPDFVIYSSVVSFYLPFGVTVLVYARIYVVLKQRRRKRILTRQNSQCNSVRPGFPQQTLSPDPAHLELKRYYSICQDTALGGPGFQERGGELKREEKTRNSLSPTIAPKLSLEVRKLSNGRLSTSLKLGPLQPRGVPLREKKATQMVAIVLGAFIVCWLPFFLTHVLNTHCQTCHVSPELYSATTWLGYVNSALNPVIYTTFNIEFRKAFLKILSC
Method in brief: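 Scintillation read-out. Specific = total − nonspecific (excess cold ligand). Data as % of control specific binding / % inhibition; IC50 by Hill fit; Ki = IC50/(1+L/KD), KD from Scatchard plot.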

5-HT7 receptor = molecular target: T2, 5-HT7 receptor (Homo sapiens, UniProt P34969); assay: Radioligand binding assay, serotoninergic 5-HT7 receptors; details: binding assay result in %, Table 5a;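 also: test compound at 1 µM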
T2 construct: purchased PerkinElmer
T2 sequence (P34969 whole entry): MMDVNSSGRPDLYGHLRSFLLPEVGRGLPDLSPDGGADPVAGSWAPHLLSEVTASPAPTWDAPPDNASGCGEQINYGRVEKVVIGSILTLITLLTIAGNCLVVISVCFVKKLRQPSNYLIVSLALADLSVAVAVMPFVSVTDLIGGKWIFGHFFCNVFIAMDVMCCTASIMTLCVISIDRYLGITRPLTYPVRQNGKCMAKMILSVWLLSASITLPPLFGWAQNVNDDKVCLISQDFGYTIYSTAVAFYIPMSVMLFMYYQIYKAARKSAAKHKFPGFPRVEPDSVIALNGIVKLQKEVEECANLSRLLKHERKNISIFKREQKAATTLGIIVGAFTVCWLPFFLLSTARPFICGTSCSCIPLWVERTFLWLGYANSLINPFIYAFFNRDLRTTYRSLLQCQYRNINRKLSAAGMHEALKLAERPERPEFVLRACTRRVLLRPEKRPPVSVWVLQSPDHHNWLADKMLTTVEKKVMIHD
Method in brief: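 Ki values used the Cheng–Prusoff equation, with KD from Scatchard analysis, applied to IC50 from Hill fits of human 5-HT7 radioligand competition curves. Bound radioligand was counted by scintillation, and excess unlabelled ligand set the non-specific binding.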

5-HT6 receptor = molecular target: T3, 5-HT6 receptor (Homo sapiens, UniProt P50406); assay: Radioligand binding assay, serotoninergic 5-HT6 receptors; details: for inhibition at 1 µM: binding assay result in %, Table 5a; for Ki: read-out: Inhibition constants Ki, 5-HT6
T3 construct: purchased PerkinElmer
T3 sequence (P50406 whole entry): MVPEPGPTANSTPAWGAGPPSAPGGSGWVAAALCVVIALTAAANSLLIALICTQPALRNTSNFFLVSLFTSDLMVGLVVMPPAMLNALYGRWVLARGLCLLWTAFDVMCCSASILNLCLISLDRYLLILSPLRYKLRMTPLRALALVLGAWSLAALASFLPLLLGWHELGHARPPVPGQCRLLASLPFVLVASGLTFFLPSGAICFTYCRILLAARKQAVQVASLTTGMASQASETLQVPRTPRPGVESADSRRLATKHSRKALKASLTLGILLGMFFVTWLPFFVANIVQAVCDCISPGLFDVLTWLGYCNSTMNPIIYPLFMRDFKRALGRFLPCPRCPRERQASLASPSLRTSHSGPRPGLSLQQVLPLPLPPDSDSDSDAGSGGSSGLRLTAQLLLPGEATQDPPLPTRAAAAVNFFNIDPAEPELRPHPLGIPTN
Method in brief: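 Values are Ki from Cheng–Prusoff, taking IC50 from Hill nonlinear regression of competition curves and KD from a Scatchard plot. Specific binding was total minus binding with excess unlabelled ligand. Radioligand displacement was detected by scintillation counting, and data were also reported as percent of control specific binding.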

[2] = molecular target: T4, 5-HT1A receptor (rat hippocampus) (Rattus norvegicus, UniProt P19327); assay: Radioligand binding assay, serotoninergic 5-HT1A receptors; details: binding assay result in %, Table 5a;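 also: test compound at 1 µM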
T4 construct: hippocampus; from tissue; host or cells: rat hippocampus
T4 sequence (P19327 1-422): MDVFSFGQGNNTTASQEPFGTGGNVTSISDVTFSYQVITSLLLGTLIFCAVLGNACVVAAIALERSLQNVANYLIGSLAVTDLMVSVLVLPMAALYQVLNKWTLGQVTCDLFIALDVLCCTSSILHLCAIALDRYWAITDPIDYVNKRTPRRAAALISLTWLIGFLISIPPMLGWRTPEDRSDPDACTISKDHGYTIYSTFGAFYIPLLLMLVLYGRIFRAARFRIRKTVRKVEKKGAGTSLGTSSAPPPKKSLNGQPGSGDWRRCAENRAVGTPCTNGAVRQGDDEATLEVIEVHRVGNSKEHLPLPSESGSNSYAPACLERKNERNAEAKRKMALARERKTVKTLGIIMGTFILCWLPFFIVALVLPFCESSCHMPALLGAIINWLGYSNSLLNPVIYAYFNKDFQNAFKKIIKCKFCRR

[3] = molecular target: D2 dopaminergic receptors (Homo sapiens, UniProt P14416); assay: Cellular functional assay, D2 dopaminergic receptors; assay type: cell-based; details: D2S (h), HEK-293 cells; for D2 ag [%]: agonism, percent of control specific agonist response (3 μM dopamine for control); for D2 antag [%]: antagonism, stimulus dopamine (30 nM)
D2 dopaminergic receptors, sequence (P14416 whole entry): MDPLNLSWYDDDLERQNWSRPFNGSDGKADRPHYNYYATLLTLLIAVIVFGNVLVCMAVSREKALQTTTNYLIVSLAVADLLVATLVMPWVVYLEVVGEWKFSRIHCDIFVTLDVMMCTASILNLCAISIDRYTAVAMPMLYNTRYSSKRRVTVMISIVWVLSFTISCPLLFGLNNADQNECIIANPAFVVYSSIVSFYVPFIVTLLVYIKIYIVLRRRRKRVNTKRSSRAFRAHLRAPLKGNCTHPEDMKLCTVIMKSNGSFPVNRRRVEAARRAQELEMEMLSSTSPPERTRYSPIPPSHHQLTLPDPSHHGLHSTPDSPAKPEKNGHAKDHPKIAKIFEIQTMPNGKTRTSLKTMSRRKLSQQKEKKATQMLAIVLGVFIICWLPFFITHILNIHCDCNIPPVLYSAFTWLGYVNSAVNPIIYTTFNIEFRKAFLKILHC
Method in brief: (§1)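 Responses expressed as percent of control specific agonist response; EC50 or IC50 from Hill-equation nonlinear fits of mean replicate concentration-response curves. For antagonists, Kb derived by modified Cheng-Prusoff using reference agonist concentration and its EC50.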

[4] = molecular target: 5-HT7 serotoninergic receptors (Homo sapiens, UniProt P34969); assay: Cellular functional assay, 5-HT7 serotoninergic receptors; assay type: cell-based; details: agonist mode; percent of control specific agonist response
5-HT7 serotoninergic receptors, sequence (P34969 whole entry): as the sequence (P34969 whole entry) above
Method in brief: as §1

Compound: O=S(=O)(NCC1CN(CCCc2noc3cc(F)ccc23)C1)c1ccc2scnc2c1 [Compound 132, N-[[1-[3-(6-Fluoro-1,2-benzoxazol-3-yl)propyl]azetidin-3-yl]methyl]-1,3-benzothiazole-5-sulphonamide]
- inhibition at 1 µM (5-HT2C receptor): 43%
- inhibition at 1 µM [1]: 60%
- inhibition at 1 µM (5-HT7 receptor): 94%
- inhibition at 1 µM (5-HT6 receptor): 69%
- inhibition at 1 µM [2]: 57%

Compound: O=S(=O)(NCC1CN(CCOc2cccc3ccccc23)C1)c1ccc2ccccc2c1 [Compound 122, N-[[1-[2-(1-Naphthyloxy)ethyl]azetidin-3-yl]methyl]naphthalene-2-sulphonamide]
- inhibition at 1 µM (5-HT2C receptor): 98%
- inhibition at 1 µM [1]: 100%
- inhibition at 1 µM (5-HT7 receptor): 100%
- D2 ag [%] [3]: 33%
- D2 antag [%] [3]: 62%
- inhibition at 1 µM (5-HT6 receptor): 99%
- Ki (5-HT6 receptor): 13 nM
- 5-HT7 ag [%] [4]: 21%
- inhibition at 1 µM [2]: 99%

Compound: CC1(C)Cc2cccc(OCCN3CCC(NS(=O)(=O)c4cccc(O)c4)C3)c2O1 (stereo not drawn) [Compound 107, N-[1-[2-[(2,2-Dimethyl-3H-benzofuran-7-yl)oxy]ethyl]pyrrolidin-3-yl]-3-hydroxybenzenesulphonamide]
- inhibition at 1 µM (5-HT2C receptor): 86%
- inhibition at 1 µM [1]: 97%
- inhibition at 1 µM (5-HT7 receptor): 84%
- inhibition at 1 µM (5-HT6 receptor): 39%
- inhibition at 1 µM [2]: 100%

Compound: Cc1cccc(S(=O)(=O)NC2CCN(CCCc3c[nH]c4ccc(Cl)cc34)C2)c1 (stereo not drawn) [Compound 86, N-[1-[3-(5-chloro-1H-indol-3-yl)propyl]pyrrolidin-3-yl]-3-methyl-benzenesulphonamide]
- inhibition at 1 µM [1]: 97%
- inhibition at 1 µM (5-HT7 receptor): 98%
- inhibition at 1 µM (5-HT6 receptor): 98%
- Ki (5-HT6 receptor): 13 nM
- inhibition at 1 µM [2]: 101%

Compound: Cc1c(S(=O)(=O)NCC2CN(CCCc3noc4cc(F)ccc34)C2)sc2ccc(Cl)cc12 [Compound 131, 5-Chloro-N-[[1-[3-(6-fluoro-1,2-benzoxazol-3-yl)propyl]azetidin-3-yl]-methyl]-3-methyl-benzothiophene-2-sulphonamide]
- inhibition at 1 µM (5-HT2C receptor): 88%
- inhibition at 1 µM [1]: 94%
- inhibition at 1 µM (5-HT7 receptor): 95%
- D2 ag [%] [3]: 5%
- D2 antag [%] [3]: 20%
- inhibition at 1 µM (5-HT6 receptor): 97%
- Ki (5-HT6 receptor): 9 nM
- 5-HT7 ag [%] [4]: 1%
- inhibition at 1 µM [2]: 87%

Compound: Cc1c(S(=O)(=O)NCC2CN(CCCc3noc4cc(F)ccc34)C2)sc2ccc(F)cc12 [Compound 130, 5-Fluoro-N-[[1-[3-(6-fluoro-1,2-benzoxazol-3-yl)propyl]azetidin-3-yl]methyl]-3-methyl-benzothiophene-2-sulphonamide]
- inhibition at 1 µM (5-HT2C receptor): 89%
- inhibition at 1 µM [1]: 94%
- inhibition at 1 µM (5-HT7 receptor): 98%
- D2 ag [%] [3]: 6%
- D2 antag [%] [3]: 34%
- inhibition at 1 µM (5-HT6 receptor): 98%
- Ki (5-HT6 receptor): 9.7 nM
- 5-HT7 ag [%] [4]: 0%
- inhibition at 1 µM [2]: 85%

Compound: CC1(C)Cc2cccc(OCCN3CCC(NS(=O)(=O)c4ccc5ccccc5c4)C3)c2O1 (stereo not drawn) [Compound 108, N-[1-[2-[(2,2-Dimethyl-3H-benzofuran-7-yl)oxy]ethyl]pyrrolidin-3-yl]naphthalene-2-sulphonamide]
- inhibition at 1 µM [1]: 95%
- inhibition at 1 µM (5-HT7 receptor): 98%
- inhibition at 1 µM (5-HT6 receptor): 59%
- inhibition at 1 µM [2]: 98%

Compound: O=S(=O)(NC1CCN(CCOc2cccc3ccccc23)C1)c1ccc2ccccc2c1 (stereo not drawn) [Compound 116, N-[1-[2-(1-Naphthyloxy)ethyl]pyrrolidin-3-yl]naphthalene-2-sulphonamide]
- inhibition at 1 µM [1]: 98%
- inhibition at 1 µM (5-HT7 receptor): -49%
- inhibition at 1 µM (5-HT6 receptor): 95%
- Ki (5-HT6 receptor): 71 nM
- inhibition at 1 µM [2]: 99%

Compound: O=S(=O)(NCC1CCN(CCOc2cccc3ccccc23)C1)c1ccc2ccccc2c1 (stereo not drawn) [Compound 124, N-[[1-[2-(1-Naphthyloxy)ethyl]pyrrolidin-3-yl]methyl]naphthalene-2-sulphonamide]
- inhibition at 1 µM (5-HT2C receptor): 80%
- inhibition at 1 µM [1]: 94%
- inhibition at 1 µM (5-HT7 receptor): 99%
- D2 ag [%] [3]: 33%
- D2 antag [%] [3]: 44%
- inhibition at 1 µM (5-HT6 receptor): 99%
- 5-HT7 ag [%] [4]: 10%
- inhibition at 1 µM [2]: 99%

Compound: O=S(=O)(NCC1CN(CCCc2noc3cc(F)ccc23)C1)c1ccc2ccccc2c1 [Compound 134, N-[[1-[3-(6-Fluoro-1,2-benzoxazol-3-yl)propyl]azetidin-3-yl]methyl]-naphthalene-2-sulphonamide]
- inhibition at 1 µM (5-HT2C receptor): 87%
- inhibition at 1 µM [1]: 80%
- inhibition at 1 µM (5-HT7 receptor): 95%
- D2 ag [%] [3]: 6%
- D2 antag [%] [3]: 47%
- inhibition at 1 µM (5-HT6 receptor): 94%
- 5-HT7 ag [%] [4]: 1%
- inhibition at 1 µM [2]: 73%

Compound: O=S(=O)(NCC1CN(CCCc2noc3cc(F)ccc23)C1)c1cccc2ccccc12 [Compound 133, N-[[1-[3-(6-Fluoro-1,2-benzoxazol-3-yl)propyl]azetidin-3-yl]methyl]-naphthalene-1-sulphonamide]
- inhibition at 1 µM (5-HT2C receptor): 47%
- inhibition at 1 µM [1]: 74%
- inhibition at 1 µM (5-HT7 receptor): 97%
- inhibition at 1 µM (5-HT6 receptor): 92%
- inhibition at 1 µM [2]: 52%
